Assay results from the supplement of paper PMC10883282.
± gives the standard deviation of the averaged measurements.

Tested on: SW684
Experiment: relative viability vs DMSO control (72 h) (fraction); higher = more viable cells
In short: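 Sarcoma cell lines in 384-well plates, seeded to reach 80–90% confluence, were given compound after 24 h and kept 72 h at 37 °C, 5% CO2, with 0.1% DMSO vehicle and a 5 µM positive control. Relative viability came from ATPLite as percent growth, averaged over up to triplicate wells. On the rescaled values, 1 equals full and 0 equals none.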

Structure (SMILES)	relative viability (0.00017 µM)	relative viability (0.00051 µM)	relative viability (0.00152 µM)	relative viability (0.00457 µM)	relative viability (0.01372 µM)	relative viability (0.04115 µM)	relative viability (0.1235 µM)	relative viability (0.3704 µM)	relative viability (1.111 µM)	relative viability (3.333 µM)	relative viability (10 µM)
COc1cc2/c(=N/c3ccc(Br)cc3F)nc[nH]c2cc1OCC1CCN(C)CC1 [Vandetanib]	1.13 ± 0.018	1.09 ± 0.075	1.14 ± 0.035	1.12 ± 0.074	1.16 ± 0.033	1.16 ± 0.02	1.16 ± 0.069	1.168 ± 0.0075	1.15 ± 0.038	1.03 ± 0.054	0.132 ± 0.016
CCCS(=O)(=O)Nc1ccc(F)c(C(=O)c2c[nH]c3ncc(-c4ccc(Cl)cc4)cc23)c1F [Vemurafenib]	1.18 ± 0.038	1.26 ± 0.02	1.18 ± 0.073	1.21 ± 0.054	1.205 ± 0.0029	1.18 ± 0.032	1.207 ± 0.0074	1.21 ± 0.034	1.21 ± 0.035	1.04 ± 0.033	0.804 ± 0.17
C[C@@H](c1ccc2nccn2c1)n1nnc2ncc(-c3cnn(C)c3)nc21 [Volitinib]	1.17 ± 0.067	1.17 ± 0.028	1.17 ± 0.022	1.14 ± 0.083	1.18 ± 0.048	1.17 ± 0.034	1.16 ± 0.064	1.15 ± 0.032	1.13 ± 0.019	1.13 ± 0.018	0.968 ± 0.092
C=CC(=O)N1CCC([C@@H]2CCNc3c(C(N)=O)c(-c4ccc(Oc5ccccc5)cc4)nn32)CC1 [Zanubrutinib]	0.998 ± 0.075	1.03 ± 0.08	1 ± 0.07	0.998 ± 0.054	1 ± 0.069	1.01 ± 0.028	1.01 ± 0.047	0.978 ± 0.074	0.985 ± 0.048	0.925 ± 0.038	0.89 ± 0.042
